This note sets out measurements from patent publication US10421759B2, “Fused bicyclic compounds for the treatment of disease” (AKARNA THERAPEUTICS, LTD., priority 2015, dated 2019).

The target in one series is T1, FXR (Homo sapiens, UniProt Q96RI1).
T1 construct: expressed in transfected cells; host or cells: CV-1 cells, transient cotransfection
T1 sequence (Q96RI1 1-486): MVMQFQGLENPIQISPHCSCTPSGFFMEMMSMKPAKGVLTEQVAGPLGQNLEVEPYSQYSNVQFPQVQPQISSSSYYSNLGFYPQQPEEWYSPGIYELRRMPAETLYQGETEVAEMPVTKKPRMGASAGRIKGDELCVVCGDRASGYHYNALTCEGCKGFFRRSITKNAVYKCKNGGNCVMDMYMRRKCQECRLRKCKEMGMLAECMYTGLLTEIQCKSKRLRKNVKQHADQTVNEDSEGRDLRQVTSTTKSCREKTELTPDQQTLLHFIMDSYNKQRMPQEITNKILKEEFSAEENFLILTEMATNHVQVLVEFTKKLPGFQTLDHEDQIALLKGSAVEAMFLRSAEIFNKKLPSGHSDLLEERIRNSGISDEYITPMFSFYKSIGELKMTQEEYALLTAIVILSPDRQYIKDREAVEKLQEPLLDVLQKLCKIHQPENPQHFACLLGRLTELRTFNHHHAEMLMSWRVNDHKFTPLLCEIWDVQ
T1 sequence (P19793 1-462 partner): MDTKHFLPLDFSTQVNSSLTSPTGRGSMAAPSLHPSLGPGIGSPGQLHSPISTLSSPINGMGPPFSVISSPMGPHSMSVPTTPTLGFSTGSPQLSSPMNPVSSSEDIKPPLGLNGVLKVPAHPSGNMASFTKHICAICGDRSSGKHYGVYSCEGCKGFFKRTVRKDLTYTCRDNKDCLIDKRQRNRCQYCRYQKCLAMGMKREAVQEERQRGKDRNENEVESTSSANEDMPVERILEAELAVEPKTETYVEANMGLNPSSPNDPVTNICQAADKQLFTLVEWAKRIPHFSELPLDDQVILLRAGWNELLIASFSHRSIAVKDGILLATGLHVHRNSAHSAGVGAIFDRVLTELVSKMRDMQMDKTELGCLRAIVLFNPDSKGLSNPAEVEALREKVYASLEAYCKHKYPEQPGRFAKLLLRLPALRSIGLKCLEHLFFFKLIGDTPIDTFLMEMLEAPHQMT
In words: FXR Agonist Tranactivation Assay (luciferase reporter, CV-1 cells). The format is cell-based. The settings on record: at 10 μM; CV-1 cells cotransfected with pCMV6-NR1H4 (FXR), pCMV6-RXRA and pEcREX7-TK-Luc; positive control 10 uM XL-335; 20 hours. As for the experimental part: CV-1 cells were transiently cotransfected with pCMV6-NR1H4 (FXR), pCMV6-RXRA and reporter plasmid pEcREX7-TK-Luc. Five hours after transfection, cells were trypsinized and dispensed into 96-well plates at a concentration of 10,000 cells per well.
Compound Dilution and Addition: Starting from 3.33 mM of compound in DMSO solution a 10-point 3-fold serial dilution was made by diluting 5 μl of compound into 10 μl of DMSO. The serially diluted compound was then diluted 1:33 into DMEM. This medium was then diluted ten-fold into the culture medium with the cells (10 μl/well). All concentration points are assayed in duplicate. Plates were incubated at 37° C. for 20 hours.
Luciferase activity Readout: After the incubation 20 μl of culture medium were removed from each well and mixed with 50 μl of assay solution (Pierce™ Gaussia Luciferase Flash Assay Kit). The luminescence was measured immediately after addition of the Luc substrate with an Envision microplate reader.
Data Reduction and Analysis: The raw data was uploaded to CDD and dose-response curves were generated using the Levenberg-Marquardt algorithm integrated into CDD. As a positive control 10 uM XL-335 and as a negative control DMSO is included on each plate and used to normalize the data with the CDD built-in normalization function.
A general note: In a reporter assay the amount or activity of a reporter protein is the signal.

The test system of a further series is Mouse Cyp7A1. In words: Gene Expression Assay (liver qPCR after p.o. dosing). Format: in vivo. The settings on record: C57BL/6 mice, 10 mg/kg p.o., liver collected 4 hours post dosing. As for the experimental part:
(§1) C57BL/6 mice (3 per group) were dosed p.o. with 10 mg/kg of compound 20. Livers were collected at 4 hours post dosing and transferred into RNALater solution immediately. Tissues were stored at 4° C. until RNA isolation. RNA was isolated, quantified and amplified; qPCR was performed using SuperScript® III Platinum® SYBR®Green One-Step qRT-PCR Kit (Cat no. 11736-051). Primers used are as listed: Mouse Cyp7A1: For: (SEQ. ID NO: 1) [NT] Rev: (SEQ. ID NO: 2) [NT]; Mouse SHP: For: (SEQ. ID NO: 3) [NT] Rev: (SEQ. ID NO: 4) [NT]; Mouse GAPDH: For: (SEQ. ID NO: 5) [NT] Rev: (SEQ. ID NO: 6) [NT]
A general note: Quantitative PCR measures a nucleic acid by following its amplification.

The subject of the next series is Mouse SHP. The description is as above. To be noted: C57BL/6 mice, 10 mg/kg p.o., liver collected 4 hours post dosing. The format is in vivo. As for the experimental part:
as §1, with “1) […]” for “1) [NT]”, “2) AGTGGTGGCAAAATTCCCA;” for “2) [NT];”, “3) […]” for “3) [NT]”, “4) AGCCTCCTGTTGCAGGTGT;” for “4) [NT];”, “5) […]” for “5) [NT]”, “6) […].” for “6) [NT]”

For the molecule `CC(C)OC(=O)C1=CN(C(=O)c2ccc(OCC[N+]3(C)CCOCC3)cc2)CC(C)(C)c2c(C(F)(F)F)n[nH]c21` [compound 13], at FXR, the “activation compared to the positive control” value was “inactive”.

For the molecule `CCOC(=O)C1=CN(C(=O)N2CC[N+](C)(C)CC2)CC(C)(C)c2c1[nH]c1ccccc21.[I-]` [compound 20, 4-(5-(ethoxycarbonyl)-1,1-dimethyl-1,2,3,6-tetrahydroazepino[4,5-b]indole-3-carbonyl)-1,1-dimethylpiperazin-1-ium iodide], in the series with Mouse Cyp7A1, the “Avg. % mRNA induction, CYP7a” value was found to be 57%. For the same molecule, the “Avg. % mRNA induction, SHP” value with Mouse SHP turned out to be 266%. Moreover, the “activation compared to the positive control” value on FXR is 86%.
